Measured values as given in patent publication US6706740B2, “Fungicidal heterocyclic aromatic amides and their compositions, methods of use and preparation” (Dow AgroSciences LLC, priority 1999, dated 2004).
Where two headings read alike, the source gives them in different places.

Key:
[1] = tested on: Mycosphaerella graminicola (Septoria tritici—SEPTTR); assay: In vitro fungal growth inhibition, Mycosphaerella graminicola (SEPTTR); assay type: cell-based; details: Zymoseptoria tritici, read-out: SEPTTR in vitro Growth Inhibition
[2] = tested on: Stagonospora nodorum (Leptosphaeria nodorum—LEPTNO); assay: In vitro fungal growth inhibition, Stagonospora nodorum (LEPTNO); assay type: cell-based; details: Leptosphaeria, read-out: LEPTNO in vitro Growth Inhibition
[3] = tested on: Rhizoctonia solani (RHIZSO); assay: microbe, parasite or virus in culture; assay type: cell-based; details: Rhizoctonia solani, read-out: RHIZSO in vitro Growth Inhibition
Ustilago maydis (USTIMA) = assay: microbe, parasite or virus in culture; assay type: cell-based; details: Mycosarcoma maydis, read-out: USTIMA in vitro Growth Inhibition
[4] = tested on: Phytophthora infestans (PHYTIN); assay: microbe, parasite or virus in culture; assay type: cell-based; details: Phytophthora infestans, read-out: PHYTIN in vitro Growth Inhibition
[5] = tested on: Magnaporthe grisea (Pyricularia oryzae—PYRIOR); assay: microbe, parasite or virus in culture; assay type: cell-based; details: Pyricularia oryzae, read-out: PYRIOR in vitro Growth Inhibition
[6] = tested on: Puccinia recondita—PUCCRT; assay: Brown Rust of Wheat, in vivo whole plant, 24 Hour Protectant; details: for pest or weed control at 100 ppm: Puccinia, read-out: PUCCRT in vivo 1 Day Protectant
Erysiphe graminis—ERYSGT = assay: Powdery Mildew of Wheat, in vivo whole plant, 24 Hour Protectant; details: for pest or weed control at 100 ppm: Erysiphe, read-out: ERYSGT in vivo 1 Day Protectant
[7] = tested on: Leptosphaeria nodorum—LEPTNO; assay: Glume Blotch of Wheat, in vivo whole plant, 24 Hour Protectant; details: for pest or weed control at 100 ppm: Leptosphaeria, read-out: LEPTNO in vivo 1 Day Protectant
[8] = tested on: Phytophthora infestans—PHYTIN; assay: whole plant or invertebrate; assay type: in vivo; details: Phytophthora, in Solanum lycopersicum, 24 h, read-out: PHYTIN in vivo 1 Day Protectant
Septoria tritici—SEPTTR = assay: Leaf Blotch of Wheat, in vivo whole plant, 24 Hour Protectant; details: Zymoseptoria tritici, 24 h, 100 ppm spray, wheat, 24 hour protectant, % control of fungal infection vs untreated plants; read-out: SEPTTR in vivo 1 Day Protectant
[9] = 100 ppm spray, wheat, 24 hour protectant, % control of fungal infection vs untreated plants

| SMILES | inhibition at 25 ppm ([1]; 25 ppm in growth medium) [%] | inhibition at 25 ppm ([2]; 25 ppm in growth medium) [%] | inhibition at 25 ppm [3] [%] | inhibition at 25 ppm (Ustilago maydis (USTIMA)) [%] | inhibition at 25 ppm [4] [%] | melting point [°C] | inhibition at 25 ppm [5] [%] | inhibition at 25 ppm [1] [%] | inhibition at 25 ppm [2] [%] | pest or weed control at 100 ppm ([6]; 24 h) [%] | pest or weed control at 100 ppm (Erysiphe graminis—ERYSGT; 24 h) [%] | pest or weed control at 100 ppm ([7]; 24 h) [%] | pest or weed control at 100 ppm [8] [%] | pest or weed control at 100 ppm (Erysiphe graminis—ERYSGT; [9]) [%] | pest or weed control at 100 ppm [6, 9] [%] | ERYSGT in vivo 1 Day Protectant (Erysiphe graminis—ERYSGT; [9]) | LEPTNO in vivo 1 Day Protectant [7, 9] | pest or weed control at 100 ppm (Septoria tritici—SEPTTR) [%] | pest or weed control at 100 ppm [7, 9] [%] | PUCCRT in vivo 1 Day Protectant [6, 9] |
| --- | --- | --- | --- | --- | --- | --- | --- | --- | --- | --- | --- | --- | --- | --- | --- | --- | --- | --- | --- | --- |
| O=C(NC1CCCCCCC1)c1ncccc1O [Compound 203] | > 80 | > 80 | > 80 | < 80 | < 80 | 63 to 64 | > 80 | – | – | – | – | – | – | – | – | – | – | – | – | – |
| COc1ccnc(C(=O)NC2CCN(Cc3cccc(C(F)(F)F)c3)CC2)c1O.O=C(O)/C=C\C(=O)O.O=C(O)/C=C\C(=O)O [Compound 307] | – | – | < 80 | < 80 | < 80 | 168 to 170 | < 80 | < 80 | < 80 | < 25 | 25 to 74 | < 25 | < 25 | – | – | – | – | – | – | – |
| COc1ccnc(C(=O)N[C@H]2COC(=O)[C@H](Cc3ccccc3)[C@@H](OC(=O)C(C)C)[C@H](C)OC2=O)c1OC(=O)C(C)C [Compound 602] | < 80 | > 80 | < 80 | < 80 | < 80 | 160 to 161 | < 80 | – | – | – | – | – | < 25 | < 25 | – | – | – | – | – | – |
| COc1ccnc(C(=O)Nc2ccc(Oc3ccc(C(F)(F)F)cc3)cc2)c1OC(C)=O [Compound 709] | > 80 | > 80 | > 80 | > 80 | < 80 | 165 to 166 | > 80 | – | – | – | – | – | < 25 | – | < 25 | + + | + + | – | – | – |
| COCCC(=O)Oc1c(OC)ccnc1C(=O)Nc1ccc(C(=O)Oc2cccc(C(F)(F)F)c2)cc1 [Compound 716] | < 80 | < 80 | < 80 | < 80 | < 80 | – | < 80 | – | – | – | – | – | < 25 | < 25 | 25 to 74 | – | – | 25 to 74 | 25 to 74 | – |
| COc1ccnc(C(=O)N[C@H]2COC(=O)[C@H](Cc3ccccc3)[C@@H](OC(=O)C(C)C)[C@H](C)OC2=O)c1OS(C)(=O)=O [Compound 721] | < 80 | > 80 | < 80 | < 80 | < 80 | 189 to 194 | < 80 | – | – | – | – | – | < 25 | < 25 | – | – | + + | – | – | + + |
| COc1ccnc(C(=O)N[C@H]2COC(=O)[C@H](Cc3ccccc3)[C@@H](OC(=O)C(C)C)[C@H](C)OC2=O)c1OS(=O)(=O)c1ccc(C)cc1 [Compound 722] | < 80 | < 80 | < 80 | < 80 | < 80 | 153 to 155 | < 80 | – | – | – | – | – | < 25 | < 25 | 25 to 74 | – | + + | – | – | – |
| COc1ccnc(C(=O)Nc2ccc(Oc3ccc(C(F)(F)F)cc3)cc2)c1OS(C)(=O)=O [Compound 723] | < 80 | < 80 | < 80 | < 80 | < 80 | 177 to 180 | < 80 | – | – | – | – | – | 25 to 74 | < 25 | 25 to 74 | – | – | – | 25 to 74 | – |
